In one assay the target is T1, opioid receptor delta (Homo sapiens, UniProt P41143).
T1 construct: expressed in transfected cells
Put plainly: GTPγ[35S] binding assay, antagonism of BW-373U86. The class given is biochemical. The conditions noted are these: read-out: Delta functional Ki (GTPγ[35S] binding). In outline:
(§1)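 Membranes with […] GTPγ[35S] in Tris pH 7.4 buffer with MgCl2, NaCl, 30 μM GDP; antagonist (10^−10–10^−5 M) preincubated 10 min at 30 °C, then challenged with BW-373U86 1 nM (delta), dynorphin-A 10 nM (kappa) or endorphin 1 μM (mu) for 1 h at 30 °C. Scintillation read-out; Ki derived.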

The target of a further assay is T2, opioid receptor mu (Homo sapiens, UniProt P35372).
T2 construct: expressed in transfected cells
Put plainly: GTPγ[35S] binding assay, antagonism of endorphin. The class given is biochemical. The following applies: read-out: Mu functional Ki (GTPγ[35S] binding). In outline:
as §1

In the next assay the target is T3, opioid receptor kappa (Homo sapiens, UniProt P41145).
T3 construct: expressed in transfected cells
Description: GTPγ[35S] binding assay, antagonism of dynorphin-A. The conditions noted are these: read-out: Kappa functional Ki (GTPγ[35S] binding). The class given is biochemical. In outline: as §1
For orientation: GTPγS is a poorly hydrolysed GTP analogue; its binding reports G protein activation.

Assay [1] is described as follows: Fasted induced refeeding model. In kind it is in vivo, Sprague-Dawley rats. The following applies: rats after overnight fast, compared with vehicle. How it is done: The following screen is used to evaluate the efficacy of test compounds for inhibiting food intake in Sprague-Dawley rats after an overnight fast.
Male Sprague-Dawley rats were obtained from Charles River Laboratories, Inc. (Wilmington, Mass.). The rats are individually housed and fed powdered chow. They are maintained on a 12 hour light/dark cycle and received food and water ad libitum. The animals are acclimated to the vivarium for a period of one week before testing is conducted. Testing is completed during the light portion of the cycle.
To conduct the food intake efficacy screen, rats are transferred to individual test cages without food the afternoon prior to testing, and the rats are fasted overnight. After the overnight fast, rats are dosed the following morning with vehicle or test compounds. A known antagonist is dosed (3 mg/kg) as a positive control, and a control group receives vehicle alone (no compound). […] Individual rat food intake is recorded continuously at 10-minute intervals for a period of two hours. When required, food intake is recorded manually using an electronic scale; food is weighed every 30 minutes after food is provided up to four hours after food is provided. Compound efficacy is determined by comparing the food intake pattern of compound-treated rats to vehicle and the standard positive control.

Assay [2] in a line: Spontaneous food intake model. In kind it is in vivo, Sprague-Dawley rats. The conditions noted are these: rats dosed before onset of dark cycle, compared with vehicle. How it is done: Male Sprague-Dawley rats may be obtained from Charles River Laboratories, Inc. (Wilmington, Mass.). The rats were individually housed and fed powdered chow. They were maintained on a 12 hour light/dark cycle and received food and water ad libitum. The animals were acclimated to the vivarium for a period of one week before testing is conducted. Rats were transferred to individual test cages 30 hours before the study. The rats were administered test compound or vehicle alone (no compound) 15-30 minutes prior to the onset of the dark cycle. The test compounds were dosed at ranges between 0.1 and 100 mg/kg depending upon the compound. The standard vehicle was 0.5% (w/v) methylcellulose or 30% β-cyclodextrin in water and the standard route of administration was oral. However, different vehicles and routes of administration are used to accommodate various compounds when required. Food intake was monitored using an automated Columbus Instruments system (Columbus, Ohio). Individual rat food intake was recorded continuously at 10-minute intervals, starting at the time of dosing, for a period of at least 12 hours. Compound efficacy was determined by comparing the food intake pattern of compound-treated rats to vehicle.

The conditions of assay [3]: rat, in vivo; cited from earlier work.
For a further assay, the target named is delta opioid receptor (Homo sapiens, UniProt P41143). The conditions noted are these: cited from earlier work.
Another assay concerns the target mu opioid receptor (Homo sapiens, UniProt P35372). The following applies: mu opioid receptor subtype; cited from earlier work.
For another assay, the target named is kappa opioid receptor (Homo sapiens, UniProt P41145). The conditions noted are these: kappa opioid receptor subtype; cited from earlier work.
For assay [4] the following is noted: humans; cited from earlier work.
The conditions of assay [5]: rodents; cited from earlier work.
The test system of another assay is TNF-α production. The conditions noted are these: rats; cited from earlier work.
For assay [6] the following is noted: bile duct ligated rats; cited from earlier work.
The conditions of assay [7]: cited from earlier work.

Where two headings read alike, the source gives them in different places.

delta opioid receptor, sequence (P41143 whole entry): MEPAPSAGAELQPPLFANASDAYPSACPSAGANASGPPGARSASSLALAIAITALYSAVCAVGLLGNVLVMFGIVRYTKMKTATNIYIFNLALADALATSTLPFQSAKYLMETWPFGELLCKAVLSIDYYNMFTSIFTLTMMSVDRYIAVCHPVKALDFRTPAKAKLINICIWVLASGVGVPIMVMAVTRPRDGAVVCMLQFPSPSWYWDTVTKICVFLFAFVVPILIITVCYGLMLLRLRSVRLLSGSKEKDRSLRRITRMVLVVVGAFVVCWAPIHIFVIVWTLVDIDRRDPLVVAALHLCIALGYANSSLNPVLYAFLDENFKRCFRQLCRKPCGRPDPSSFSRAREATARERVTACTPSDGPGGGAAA
T1 sequence (P41143 whole entry): as above
T2 sequence (P35372 whole entry): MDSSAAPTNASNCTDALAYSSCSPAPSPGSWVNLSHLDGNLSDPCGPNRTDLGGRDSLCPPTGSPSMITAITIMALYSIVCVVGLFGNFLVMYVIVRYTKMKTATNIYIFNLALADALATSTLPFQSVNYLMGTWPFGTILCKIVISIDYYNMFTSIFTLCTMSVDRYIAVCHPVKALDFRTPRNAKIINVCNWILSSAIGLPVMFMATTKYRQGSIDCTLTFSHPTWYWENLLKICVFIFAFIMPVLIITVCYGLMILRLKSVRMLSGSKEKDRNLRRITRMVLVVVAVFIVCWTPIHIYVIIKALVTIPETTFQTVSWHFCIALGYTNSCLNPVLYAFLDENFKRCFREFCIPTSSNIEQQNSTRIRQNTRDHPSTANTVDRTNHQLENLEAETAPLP
mu opioid receptor, sequence (P35372 whole entry): as above
kappa opioid receptor, sequence (P41145 whole entry): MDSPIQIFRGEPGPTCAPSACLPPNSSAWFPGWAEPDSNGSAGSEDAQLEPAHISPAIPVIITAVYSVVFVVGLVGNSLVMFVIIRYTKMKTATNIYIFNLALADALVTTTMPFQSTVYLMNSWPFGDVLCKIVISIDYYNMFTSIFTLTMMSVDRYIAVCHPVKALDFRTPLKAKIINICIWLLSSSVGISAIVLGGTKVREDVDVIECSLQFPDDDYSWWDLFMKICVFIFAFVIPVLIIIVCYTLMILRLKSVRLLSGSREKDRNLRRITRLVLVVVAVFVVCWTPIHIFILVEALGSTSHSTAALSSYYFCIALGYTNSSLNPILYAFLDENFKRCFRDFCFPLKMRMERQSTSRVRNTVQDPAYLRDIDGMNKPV
T3 sequence (P41145 whole entry): as above

Turning to `CC(C)CCNCc1ccc(-c2cccc(-c3nnc[nH]3)c2)c(F)c1.Cl` [E7-02, [2-Fluoro-3′-(4H-[1,2,4]-triazol-3-yl)-biphenyl-4-ylmethyl]-(3-methyl-butyl)-amine hydrochloride salt], the values for the Ki on opioid receptor delta, at opioid receptor mu and at opioid receptor kappa were 1400 nM, 3.3 nM and 5.9 nM, respectively. The food intake result in [1] and in assay [2] was “significant reduction in food intake” in each case.
As to `C[C@H]1CN(CC[C@H](O)C2CCCCC2)CC[C@@]1(C)c1cccc(O)c1` [LY255582], the anorectic effects result in assay [3] is recorded as “robust anorectic effects”.
Turning to `C[C@H]1CN(CCC(O)C2CCCCC2)CC[C@@]1(C)c1cccc(O)c1` (stereo partly drawn) [LY515300, 1-(3-cyclohexyl-3-hydroxypropyl)-3(R),4(R)-dimethyl-4-(3-hydroxyphenyl)piperidine], the binding affinity entry at delta opioid receptor is reported as “lower affinity”; on mu opioid receptor, “subnanomolar”; at kappa opioid receptor it was “subnanomolar”.
For `O=C1CC[C@@]2(O)[C@H]3Cc4ccc(O)c5c4[C@@]2(CCN3CC2CC2)[C@H]1O5` [Naltrexone], the weight loss efficacy entry in assay [4] and in assay [5] was “poor weight loss efficacy” throughout. The “LPS-stimulated TNF-α production” value with TNF-α production was “inhibit LPS-stimulated TNF-α production”. The liver fibrosis entry in [6] is “attenuate liver fibrosis”. The insulin sensitivity entry in assay [7] (Polycystic Ovarian Syndrome (PCOS) women with hyperinsulinemia) and in [7] (post-menopausal women with hyperinsulinemia) was “improve insulin sensitivity” in each case.

Source of the values: patent US7615651B2, “Diaryl, dipyridinyl and aryl-pyridinyl derivatives and uses thereof” (Pfizer Inc., priority 2006, dated 2009).
